Test results from ChEMBL document CHEMBL1132842, “Novel antifungals based on 4-substituted imidazole: solid-phase synthesis of substituted aryl sulfonamides towards optimization of in vitro activity” (Bioorg Med Chem Lett, 2000).
In brackets after ≈: the same amount, converted by molar mass.

What was measured:
[1] = system: mold; test: Concentration required to inhibit growth of pathogenic molds; type: functional
[2] = system: Saccharomyces cerevisiae; test: Concentration required to inhibit 65% growth of selected sets of Yeasts; type: functional
[3] = system: Microsporum canis; test: Minimum concentration required to inhibit the growth of […] canis; type: functional
[4] = system: Kluyveromyces marxianus; test: Minimum concentration required to inhibit the growth of Candida kefyr; type: functional
[5] = system: Candida tropicalis; test: Minimum concentration required to inhibit the growth of Candida tropicalis; type: functional
[6] = system: Nakaseomyces glabratus; test: Minimum concentration required to inhibit the growth of Candida glabrata; type: functional
[7] = system: Aspergillus fumigatus; test: Minimum concentration required to inhibit the growth of Aspergillus fumigatus; type: functional
[8] = system: Candida albicans; test: Minimum concentration required to inhibit the growth of Candida albicans 1; type: functional
[9] = system: Candida parapsilosis; test: Minimum concentration required to inhibit the growth of Candida parapsilosis; type: functional; conditions: Lodderomyces parapsilosis
[10] = system: Sporothrix schenckii; test: Minimum concentration required to inhibit the growth of Sporothrix schenck ii; type: functional
[11] = system: Trichophyton benhamiae; test: Minimum concentration required to inhibit the growth of Trichophyton mentagrophytes; type: functional, Arthroderma benhamiae
[12] = system: Pichia kudriavzevii; test: Minimum concentration required to inhibit the growth of Candida krusei; type: functional
[13] = system: Candida albicans; test: Minimum concentration required to inhibit the growth of Candida albicans 2; type: functional
[14] = system: Trichophyton rubrum; test: Minimum concentration required to inhibit the growth of Trichophyton rubrum; type: functional
[15] = system: Cryptococcus neoformans; test: Minimum concentration required to inhibit the growth of Cryptococcus neoformans; type: functional
[16] = system: Candida albicans; test: Minimum concentration required to inhibit the growth of Candida albicans 4; type: functional
[17] = system: Saccharomyces cerevisiae; test: Concentration required to inhibit 65% growth of Yeast strains; type: functional

SMILES: O=S(=O)(c1ccc(N2CCN(c3ccc(Cl)c(Cl)c3)CC2)cc1)N(CCc1ccccc1F)Cc1c[nH]cn1
- pLADM [1]: 4
- pLADY [2]: 5.8

SMILES: O=S(=O)(c1ccc(N2CCN(c3ccc(F)cc3)CC2)cc1)N(CCc1ccccc1F)Cc1c[nH]cn1
- pLADM [1]: 4.4
- pLADY [2]: 6.8

SMILES: CCC(CC)Nc1ccc(S(=O)(=O)N(Cc2c[nH]cn2)C(C(C)C)C(C)C)cc1
- pLADM [1]: 4
- pLADY [2]: 6.5

SMILES: CC(C)C(C(C)C)N(Cc1c[nH]cn1)S(=O)(=O)c1ccc(-c2ccc(Cl)cc2)cc1
- pLADM [1]: 5.4
- pLADY [2]: 6.4

SMILES: O=S(=O)(c1ccc(N2CCCCC2)cc1)N(CCc1ccccc1F)Cc1c[nH]cn1
- pLADM [1]: 4.2
- pLADY [2]: 5.9

SMILES: O=S(=O)(c1ccc(CNCCc2ccc(Cl)cc2Cl)cc1)N(CCc1ccc(F)cc1)Cc1c[nH]cn1
- pLADM [1]: 4.4
- pLADY [2]: 6.1

SMILES: COc1ccc(-c2ccc(S(=O)(=O)N(Cc3c[nH]cn3)C(C(C)C)C(C)C)cc2)cc1
- pLADM [1]: 5
- pLADY [2]: 6.4

SMILES: O=S(=O)(c1ccc(-c2ccc(Cl)cc2)cc1)N(Cc1c[nH]cn1)CC1CCCCC1
- pLADM [1]: 4.4
- pLADY [2]: 6.3

SMILES: C[C@@H](c1ncncc1F)[C@](O)(Cn1cncn1)c1ccc(F)cc1F [VORICONAZOLE]
- MIC [3]: 1 µM (≈ 0.349 µg/mL)
- MIC [4]: ≤ 0.1 µM
- MIC [5]: 1 µM (≈ 0.349 µg/mL)
- MIC [6]: 10 µM (≈ 3.49 µg/mL)
- MIC [7]: 1 µM (≈ 0.349 µg/mL)
- MIC [8]: > 10 µM
- MIC [9]: ≤ 0.1 µM
- MIC [10]: > 10 µM
- MIC [11]: ≤ 0.1 µM
- MIC [12]: 10 µM (≈ 3.49 µg/mL)
- MIC [13]: ≤ 0.1 µM
- MIC [14]: ≤ 0.1 µM
- MIC [15]: 1 µM (≈ 0.349 µg/mL)

SMILES: COc1ccc(-c2ccc(S(=O)(=O)N(Cc3c[nH]cn3)CC3CCCCC3)cc2)cc1
- pLADM [1]: 4.4
- pLADY [2]: 6.3

SMILES: O=S(=O)(c1ccc(N2CCN(c3ccccn3)CC2)cc1)N(Cc1c[nH]cn1)CC1CCCCC1
- pLADM [1]: 4
- pLADY [2]: 6.4

SMILES: Cc1ccc(N2CCN(c3ccc(S(=O)(=O)N(Cc4c[nH]cn4)CC4CCCCC4)cc3)CC2)cc1
- pLADM [1]: 4
- pLADY [2]: 6.3

SMILES: CC(C)C(C(C)C)N(Cc1c[nH]cn1)S(=O)(=O)c1ccc(-c2ccc(F)cc2)cc1
- MIC [3]: 1 µM (≈ 0.43 µg/mL)
- MIC [4]: ≤ 0.1 µM
- pLADM [1]: 5.2
- MIC [5]: ≤ 0.1 µM
- MIC [6]: 1 µM (≈ 0.43 µg/mL)
- MIC [7]: 10 µM (≈ 4.3 µg/mL)
- MIC [8]: > 10 µM
- MIC [9]: ≤ 0.1 µM
- MIC [10]: > 10 µM
- MIC [11]: 10 µM (≈ 4.3 µg/mL)
- MIC [16]: 1 µM (≈ 0.43 µg/mL)
- MIC [12]: 1 µM (≈ 0.43 µg/mL)
- pLADY [17]: 6.8
- MIC [13]: ≤ 0.1 µM
- MIC [14]: 1 µM (≈ 0.43 µg/mL)
- MIC [15]: ≤ 0.1 µM

SMILES: O=S(=O)(c1ccc(COc2ccc(F)cc2)cc1)N(Cc1c[nH]cn1)CC1CCCCC1
- pLADM [1]: 4.4
- pLADY [2]: 6.1

SMILES: O=S(=O)(c1ccc(N2CCN(c3ccccc3Cl)CC2)cc1)N(CCc1ccccc1F)Cc1c[nH]cn1
- pLADM [1]: 4.2
- pLADY [2]: 6

SMILES: O=S(=O)(c1ccc(N2CCOCC2)cc1)N(CCc1ccccc1F)Cc1c[nH]cn1
- pLADM [1]: 4
- pLADY [2]: 4.5

SMILES: CCCCOc1ccc(S(=O)(=O)N(CCc2ccc(F)cc2)Cc2c[nH]cn2)cc1
- MIC [3]: 10 µM (≈ 4.32 µg/mL)
- MIC [4]: ≤ 0.1 µM
- MIC [5]: ≤ 0.1 µM
- MIC [6]: 10 µM (≈ 4.32 µg/mL)
- MIC [7]: > 10 µM
- MIC [8]: > 10 µM
- MIC [9]: 1 µM (≈ 0.432 µg/mL)
- MIC [10]: > 10 µM
- MIC [11]: > 10 µM
- MIC [16]: 10 µM (≈ 4.32 µg/mL)
- MIC [12]: > 10 µM
- MIC [13]: ≤ 0.1 µM
- MIC [14]: 1 µM (≈ 0.432 µg/mL)
- MIC [15]: 1 µM (≈ 0.432 µg/mL)

SMILES: O=S(=O)(c1ccc(NCCc2ccc(Cl)cc2Cl)cc1)N(Cc1c[nH]cn1)CC1CCCCC1
- pLADM [1]: 4
- pLADY [2]: 5.4

SMILES: O=S(=O)(c1ccc(-c2ccc(F)cc2)cc1)N(Cc1c[nH]cn1)CC1CCCCC1
- pLADM [1]: 4.4
- pLADY [2]: 6.3

SMILES: CC(C)C(C(C)C)N(Cc1c[nH]cn1)S(=O)(=O)c1ccc(-c2ccccc2)cc1
- pLADM [1]: 5.2
- pLADY [2]: 6.6

SMILES: O=S(=O)(c1ccc(N2CCN(c3cccc(C(F)(F)F)c3)CC2)cc1)N(Cc1c[nH]cn1)CC1CCCCC1
- pLADM [1]: 4
- pLADY [2]: 6.3

SMILES: O=S(=O)(c1ccc(-c2ccsc2)cc1)N(Cc1c[nH]cn1)CC1CCCCC1
- pLADM [1]: 4.4
- pLADY [2]: 6.1

SMILES: CCC(C)n1ncn(-c2ccc(N3CCN(c4ccc(OCC5COC(Cn6cncn6)(c6ccc(Cl)cc6Cl)O5)cc4)CC3)cc2)c1=O (stereo not given) [ITRACONAZOLE]
- MIC [3]: ≤ 0.1 µM
- MIC [4]: ≤ 0.1 µM
- MIC [5]: 0.1 µM (≈ 0.0706 µg/mL)
- MIC [6]: 1 µM (≈ 0.706 µg/mL)
- MIC [7]: 1 µM (≈ 0.706 µg/mL)
- MIC [8]: > 10 µM
- MIC [9]: ≤ 0.1 µM
- MIC [10]: 10 µM (≈ 7.06 µg/mL)
- MIC [11]: 0.1 µM (≈ 0.0706 µg/mL)
- MIC [16]: > 10 µM
- MIC [12]: 1 µM (≈ 0.706 µg/mL)
- MIC [13]: ≤ 0.1 µM
- MIC [14]: ≤ 0.1 µM
- MIC [15]: ≤ 0.1 µM

SMILES: CN(c1ccc(S(=O)(=O)N(Cc2c[nH]cn2)CC2CCCCC2)cc1)C1CCCCC1
- pLADM [1]: 4
- pLADY [2]: 5.5

SMILES: O=S(=O)(c1ccc(CN2CCN(c3ccccn3)CC2)cc1)N(Cc1c[nH]cn1)CC1CCCCC1
- pLADM [1]: 4
- pLADY [2]: 6.4

SMILES: CCCCCCN(Cc1c[nH]cn1)S(=O)(=O)c1ccc(-c2ccc(F)cc2)cc1
- pLADM [1]: 4.8
- pLADY [2]: 5.9

SMILES: CC(C)C(C(C)C)N(Cc1c[nH]cn1)S(=O)(=O)c1ccc(N2CCN(c3ccc(F)cc3)CC2)cc1
- pLADM [1]: 4
- pLADY [2]: 6.4

SMILES: O=S(=O)(c1ccc(CNCCc2ccc(Cl)cc2Cl)cc1)N(Cc1c[nH]cn1)CC1CCCCC1
- MIC [3]: 10 µM (≈ 5.36 µg/mL)
- MIC [4]: ≤ 0.1 µM
- pLADM [1]: 4.4
- MIC [5]: 1 µM (≈ 0.536 µg/mL)
- MIC [6]: 10 µM (≈ 5.36 µg/mL)
- MIC [7]: > 10 µM
- MIC [8]: 10 µM (≈ 5.36 µg/mL)
- MIC [9]: < 0.1 µM
- MIC [10]: > 10 µM
- MIC [11]: > 10 µM
- MIC [16]: 1 µM (≈ 0.536 µg/mL)
- MIC [12]: 1 µM (≈ 0.536 µg/mL)
- pLADY [17]: 6.5
- MIC [13]: ≤ 0.1 µM
- MIC [14]: 10 µM (≈ 5.36 µg/mL)
- MIC [15]: 1 µM (≈ 0.536 µg/mL)

SMILES: CN1CCN(c2ccc(S(=O)(=O)N(Cc3c[nH]cn3)CC3CCCCC3)cc2)CC1
- pLADM [1]: 4
- pLADY [2]: 4.6

SMILES: CCCCOc1ccc(S(=O)(=O)N(Cc2c[nH]cn2)C(CC)C2CCCCC2)cc1 (stereo not given)
- MIC [3]: 1 µM (≈ 0.434 µg/mL)
- MIC [4]: ≤ 0.1 µM
- MIC [5]: 1 µM (≈ 0.434 µg/mL)
- MIC [6]: 1 µM (≈ 0.434 µg/mL)
- MIC [7]: > 10 µM
- MIC [8]: > 10 µM
- MIC [9]: ≤ 0.1 µM
- MIC [10]: > 10 µM
- MIC [11]: 10 µM (≈ 4.34 µg/mL)
- MIC [16]: ≤ 0.1 µM
- MIC [12]: 1 µM (≈ 0.434 µg/mL)
- MIC [13]: ≤ 0.1 µM
- MIC [14]: 1 µM (≈ 0.434 µg/mL)
- MIC [15]: 1 µM (≈ 0.434 µg/mL)

SMILES: CC(=O)Nc1cccc(-c2ccc(S(=O)(=O)N(Cc3c[nH]cn3)CC3CCCCC3)cc2)c1
- pLADM [1]: 4
- pLADY [2]: 4.1

SMILES: O=S(=O)(c1ccc(N2CCN(c3ccc(F)cc3)CC2)cc1)N(Cc1c[nH]cn1)CC1CCCCC1
- MIC [3]: 10 µM (≈ 5.12 µg/mL)
- MIC [4]: ≤ 0.1 µM
- pLADM [1]: 4
- MIC [5]: ≤ 0.1 µM
- MIC [6]: 10 µM (≈ 5.12 µg/mL)
- MIC [7]: > 10 µM
- MIC [8]: > 10 µM
- MIC [9]: ≤ 0.1 µM
- MIC [10]: > 10 µM
- MIC [11]: > 10 µM
- MIC [16]: ≤ 0.1 µM
- MIC [12]: 10 µM (≈ 5.12 µg/mL)
- pLADY [17]: 6.9
- MIC [13]: ≤ 0.1 µM
- MIC [14]: 10 µM (≈ 5.12 µg/mL)
- MIC [15]: 1 µM (≈ 0.512 µg/mL)

SMILES: O=S(=O)(c1ccc(-c2ccc(F)cc2)cc1)N(Cc1c[nH]cn1)C1CCCCC1
- pLADM [1]: 4.4
- pLADY [2]: 5.8
